Experimental data from PubChem BioAssay (NCI).
Values joined by “and” are separate entries in the source; they are usually repeats but may differ in a detail not shown here. Identical values can stand only once.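 1) Cells in 96-well plates. 2) Compound, 48 h, 5 concentrations. 3) Linear interpolation between surrounding doses. 4) Unreached endpoint = highest concentration. The concentration for 50% growth inhibition is given as GI50. The concentration for full growth arrest is given as TGI.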

Experiments:
Assay in all cases: inhibition of tumour cell growth, NCI panel, 48 h
K-562 leukemia = test system: K-562 leukemia
786-0 renal = test system: 786-0 renal
SNB-75 CNS = test system: SNB-75 CNS
ACHN renal = test system: ACHN renal
RXF 393 renal = test system: RXF 393 renal
SF-539 CNS = test system: SF-539 CNS
SK-MEL-2 melanoma = test system: SK-MEL-2 melanoma
KM12 colon = test system: KM12 colon
HCC-2998 colon = test system: HCC-2998 colon
NCI-H522 lung = test system: NCI-H522 lung

SMILES	GI50 (K-562 leukemia)	TGI (K-562 leukemia)	GI50 (786-0 renal)	TGI (786-0 renal)	GI50 (SNB-75 CNS)	TGI (SNB-75 CNS)	GI50 (ACHN renal)	TGI (ACHN renal)	GI50 (RXF 393 renal)	TGI (RXF 393 renal)	GI50 (SF-539 CNS) [µM]	TGI (SF-539 CNS) [µM]	GI50 (SK-MEL-2 melanoma)	TGI (SK-MEL-2 melanoma)	TGI (KM12 colon)	TGI (HCC-2998 colon) [µM]	TGI (NCI-H522 lung)	GI50 (NCI-H522 lung)	GI50 (KM12 colon)	GI50 (HCC-2998 colon) [µM]
O=C1c2cccnc2-c2nc(-c3ccncc3)cc3c2c1nc1ccccc13	15.4 µM	> 100 µM	15 µM	39.9 µM	13.1 µM	25.8 µM	12.1 µM	24.4 µM	15.6 µM	66.7 µM	2.95	13.6	> 100 µM	> 100 µM	–	–	–	–	–	–
CC1(C)OC2COC3(CNO)OC(C)(C)OC3C2O1 (stereo not drawn)	–	> 100 µM	–	> 100 µM	–	> 100 µM	–	> 100 µM	–	> 100 µM	–	> 100	–	> 100 µM	> 100 µM	> 100	–	–	–	–
O=C1C=C(O)c2[nH]c(=O)ccc2C1=O	–	> 100 µM	–	> 100 µM	–	> 100 µM	–	> 100 µM	–	> 100 µM	–	> 100	–	–	–	> 100	> 100 µM	–	–	–
Cc1ccc2c(c1)Sc1ccc(N=NN(C)C)cc1N2C	–	–	–	> 100 µM	–	> 100 µM	–	> 100 µM	–	> 100 µM	–	–	–	> 100 µM	> 100 µM	> 100	> 100 µM	–	–	–
Cl[Si]1(Cl)Oc2ccccc2O[Si](Cl)(Cl)Oc2ccccc2O1	–	40.9 µM	–	21.5 µM	–	99.1 µM	–	> 100 µM	–	–	–	97.9	–	73.8 µM	> 100 µM	53.5	5.4 µM	–	–	–
CC1(C)CC[C@H](C2=CC(=O)c3c(O)ccc(O)c3C2=O)O1	–	–	0.829 µM and 1.28 µM and 0.237 µM	2.07 µM and 2.8 µM and 0.504 µM	8.53 µM and 2.87 µM and 0.95 µM	27.7 µM and 4.02 µM	1.64 µM and 1.27 µM and 0.252 µM	3.45 µM and 2.55 µM and 0.69 µM	1.39 µM and 2.02 µM and 0.271 µM	2.93 µM and 3.82 µM and 0.604 µM	–	–	4.34 µM and 1.3 µM and 0.682 µM	8.47 µM and 2.67 µM and 1.56 µM	14.2 µM and 3.2 µM and 3.45 µM	–	1.23 µM and 0.248 µM	0.55 µM and 0.0942 µM	6.25 µM and 1.69 µM and 1.83 µM	–
O=c1ncccn1C1C=C(CO)C(O)C1O (stereo not drawn)	–	> 50 µM	–	> 50 µM	–	–	–	> 50 µM	–	–	–	> 50	–	> 50 µM	> 50 µM	> 50	> 50 µM	–	–	–
CCCCCCCCCCCCCC(=O)OCC1OC(=O)CC1O (stereo not drawn)	–	61.5 µM	–	> 100 µM	–	> 100 µM	–	> 100 µM	–	> 100 µM	–	> 100	–	> 100 µM	> 100 µM	> 100	–	–	–	–
CCOC(=O)/C(=C/c1cccc(OC)c1)N(CC)CC	–	> 100 µM	–	> 100 µM	–	–	–	> 100 µM	–	–	–	> 100	–	> 100 µM	> 100 µM	–	> 100 µM	–	–	–
COc1ccc(CC(C)C(C)Cc2ccc(OC)c(OC)c2)cc1OC (stereo not drawn)	> 1400 µM	> 1400 µM	804 µM	> 1400 µM	> 1400 µM	> 1400 µM	> 1400 µM	> 1400 µM	255 µM	950 µM	> 1400	> 1400	> 1400 µM	> 1400 µM	> 1400 µM	–	> 1400 µM	79.7 µM	> 1400 µM	–
COc1cc2cnc3c4ccccc4ccc3c2cc1OC	–	> 100 µM	–	> 100 µM	–	> 100 µM	–	> 100 µM	–	–	–	–	–	> 100 µM	> 100 µM	> 100	> 100 µM	–	–	–
CCOC(=O)C(=O)Nc1ccccc1C(F)(F)F	–	–	–	> 100 µM	–	> 100 µM	–	> 100 µM	–	> 100 µM	–	> 100	–	> 100 µM	> 100 µM	> 100	–	–	–	–
c1ccc2nc3c(cc4ccccn43)nc2c1	> 100 µM	> 100 µM	35.7 µM	> 100 µM	–	–	60.2 µM	> 100 µM	30.1 µM	> 100 µM	36.7	> 100	43.8 µM	> 100 µM	> 100 µM	> 100	> 100 µM	21.5 µM	26.6 µM	61.8
c1ccc(Cn2cnc3ccc(-c4nc(-c5ccc6c(c5)ncn6C5CCCCC5)cn5ccnc45)cc32)cc1	–	–	0.799 µM	> 100 µM	–	–	3.08 µM	> 100 µM	–	–	–	–	2.02 µM	4.85 µM	4.93 µM	3.41	5.09 µM	2.03 µM	2.08 µM	1.9
O=C(NC12CC3CC(CC(C3)C1)C2)C(=O)c1c[nH]c2ccc(Cl)cc12	–	> 100 µM	–	34.6 µM	–	52.1 µM	–	> 100 µM	–	–	–	> 100	–	89.4 µM	> 100 µM	> 100	> 100 µM	–	–	–
OC(CN1CC1)C(O)CN1CC1 (stereo not drawn)	> 50 µg/mL	> 50 µg/mL	> 50 µg/mL	> 50 µg/mL	–	–	> 50 µg/mL	> 50 µg/mL	> 50 µg/mL	> 50 µg/mL	–	–	> 50 µg/mL	> 50 µg/mL	> 50 µg/mL	–	> 50 µg/mL	> 50 µg/mL	> 50 µg/mL	–

SMILES	GI50 (K-562 leukemia)	TGI (K-562 leukemia)	GI50 (786-0 renal)	TGI (786-0 renal)	GI50 (SNB-75 CNS)	TGI (SNB-75 CNS)	GI50 (ACHN renal)	TGI (ACHN renal)	GI50 (RXF 393 renal)	TGI (RXF 393 renal)	GI50 (SF-539 CNS) [µM]	TGI (SF-539 CNS) [µM]	GI50 (SK-MEL-2 melanoma)	TGI (SK-MEL-2 melanoma)	TGI (KM12 colon)	TGI (HCC-2998 colon) [µM]	TGI (NCI-H522 lung)	GI50 (NCI-H522 lung)	GI50 (KM12 colon)	GI50 (HCC-2998 colon) [µM]
C[C@H]1[C@H](C)CC[C@]2(C(=O)NCCNCCN)CC[C@]3(C)C(=CC[C@@H]4[C@@]5(C)CCC(=O)C(C)(C)[C@@H]5CC[C@]43C)[C@H]12	2.23 µM	5.35 µM	1.74 µM	3.18 µM	–	–	1.76 µM	3.27 µM	–	–	1.68	3.05	1.98 µM	4.29 µM	3.42 µM	3.07	–	–	1.85 µM	1.66
CC(CC(=O)Nc1ccc(NC(=O)CC(C)N=NC(N)=S)cc1)N=NC(N)=S (stereo not drawn)	–	> 100 µM	–	> 100 µM	–	> 100 µM	–	> 100 µM	–	> 100 µM	–	> 100	–	> 100 µM	> 100 µM	> 100	–	–	–	–
CCN(CC)CC(=O)N1CCc2c([nH]c3ccccc23)C1c1cccnc1 (stereo not drawn)	–	> 100 µM	–	> 100 µM	–	> 100 µM	–	> 100 µM	–	–	–	> 100	–	–	> 100 µM	> 100	> 100 µM	–	–	–
CC1(c2ccccc2)CC(c2ccccc2)=NO1 (stereo not drawn)	–	> 100 µM	–	> 100 µM	–	> 100 µM	–	> 100 µM	–	–	–	> 100	–	> 100 µM	> 100 µM	> 100	> 100 µM	–	–	–
Cc1ccc(S(=O)(=O)N/N=C(\c2nc3ccc([N+](=O)[O-])cc3[nH]c2=O)C(O)c2ccccc2Cl)cc1 (stereo not drawn)	–	> 100 µM	–	> 100 µM	–	> 100 µM	–	> 100 µM	–	–	–	> 100	–	> 100 µM	> 100 µM	> 100	82.6 µM	–	–	–
C#CCC(N)(CO)C(=O)O (stereo not drawn)	–	> 100 µM	–	> 100 µM	–	> 100 µM	–	> 100 µM	–	–	–	> 100	–	> 100 µM	> 100 µM	> 100	> 100 µM	–	–	–
CCSc1nc(N)c2cn[nH]c2n1	37.3 µM	> 100 µM	40.2 µM	> 100 µM	–	–	31.3 µM	> 100 µM	13.3 µM	35.5 µM	43.6	> 100	47.3 µM	> 100 µM	59.6 µM	–	> 100 µM	62 µM	22 µM	–
COc1ccccc1/C=C/C(=O)/C=C/c1ccccc1O	0.441 µM	–	1.6 µM	3.41 µM	0.964 µM	2.57 µM	1.36 µM	2.66 µM	–	0.763 µM	1.46	2.78	–	–	1.5 µM	2.64	2.21 µM	0.95 µM	0.369 µM	1.29
CC/C(=N\NS(=O)(=O)c1ccccc1)c1ccccc1	–	> 100 µM	–	> 100 µM	–	> 100 µM	–	> 100 µM	–	> 100 µM	–	> 100	–	> 100 µM	> 100 µM	> 100	–	–	–	–
NC(=O)/C=C/C(=O)O	–	> 5000 µM	–	> 5000 µM	–	> 5000 µM	–	> 5000 µM	–	> 5000 µM	–	> 5000	–	> 5000 µM	> 5000 µM	–	> 5000 µM	–	–	–
O=c1c(Cl)c(Cl)cnn1CCc1ccncc1	–	> 100 µM	–	59.6 µM	–	33.2 µM	–	33.4 µM	–	42.2 µM	–	43.4	–	39.7 µM	28.1 µM	27.9	–	–	–	–
Cn1c2ccccc2c2c(=O)c3ccccc3[nH]c21	> 100 µM	> 100 µM	33.7 µM	> 100 µM	84.7 µM	> 100 µM	31.1 µM	> 100 µM	54 µM	> 100 µM	34	> 100	> 100 µM	> 100 µM	> 100 µM	–	> 100 µM	> 100 µM	22.1 µM	–
O=c1c2c3c(sc2n2c(-c4cc(-c5ccccc5)nn4-c4ccccc4)nnc2n1Cc1ccccc1)CCCC3	> 100 µM	> 100 µM	> 100 µM	> 100 µM	12.1 µM	56.4 µM	> 100 µM	> 100 µM	–	–	> 100	> 100	> 100 µM	> 100 µM	> 100 µM	> 100	–	–	> 100 µM	> 100
COc1ccccc1-c1cc(=O)c2ccc(C)nc2[nH]1	–	> 100 µM	> 100 µM	> 100 µM	–	–	–	> 100 µM	–	> 100 µM	–	> 100	–	> 100 µM	> 100 µM	> 100	> 100 µM	–	–	–
CNC(SC)=C1C(=O)OC(C)(C)OC1=O	–	> 100 µM	–	> 100 µM	–	> 100 µM	–	> 100 µM	–	> 100 µM	–	–	–	> 100 µM	> 100 µM	> 100	> 100 µM	–	–	–
